In patent US10696693B2, “Fused imidazole derivatives as TGF-beta inhibitors” (Rigel Pharmaceuticals, Inc., priority 2014, dated 2020):
Read-outs that look alike come from different tables or passages of the source.

Experiments:
TGF-β = assay: AlphaScreen SureFire p-SMAD3 (Ser423/425) assay, TGF-β-stimulated cells; format: cell-based; conditions: Mus musculus
Method in brief: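 The p-SMAD-3 (Ser423/425) SureFire assay measured phosphorylation of endogenous SMAD-3 in cell lysates. Cells were plated overnight in collagen-coated plates, exposed to three-fold serially diluted compounds for about 10 minutes, then stimulated with TGFβ. Lysates (5 μL) received acceptor bead mix for 2 hours, then donor beads for 1½ hours before AlphaScreen reading.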

GDF8 = assay: AlphaScreen SureFire p-SMAD3 (Ser423/425) assay, GDF8-stimulated cells; format: cell-based
Method in brief: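 A SureFire AlphaScreen assay measured phosphorylation of endogenous SMAD-3 at Ser423/425 in cell lysates. Cells were treated with three-fold serially diluted compounds in DMSO for about 10 minutes, then stimulated with GDF8. After medium removal, cells were lysed in 1× Lysis Buffer (about 25 μL) with gentle shaking for 5-10 minutes.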

[1] = p-SMAD3 (Ser423/425) AlphaScreen in cell lysate, MPC-11, TGF-β stimulation, read-out: TGF-β: inhibition of TGF-β signaling, TGF-β pSMAD (MPC-11)
[2] = Mus musculus, MPC-11, p-SMAD3 (Ser423/425) AlphaScreen in cell lysate, MPC11, GDF8 stimulation, read-out: GDF8: inhibition of GDF8 signaling, GDF pSMAD (MPC11)
[3] = MPC-11, read-out: TGF-β: inhibition of TGF-β signaling, TGF-β pSMAD (MPC-11), p-SMAD3 (Ser423/425) AlphaScreen in cell lysate, TGF-β stimulation
[4] = Mus musculus, MPC-11, read-out: GDF8: inhibition of GDF8 signaling, GDF pSMAD (MPC11), p-SMAD3 (Ser423/425) AlphaScreen in cell lysate, GDF8 stimulation

Row | Structure (SMILES) | IC50 (TGF-β; [1]) | IC50 (GDF8; [2]) | IC50 (TGF-β; [3]) | IC50 (GDF8; [4]) | IC50 (GDF8; read-out: GDF8: inhibition of GDF8 signaling, GDF pSMAD (MPC11), p-SMAD3 (Ser423/425) AlphaScreen in cell lysate, GDF8 stimulation)
1 | Cc1cc(-c2nc3n(c2-c2ccc4ncccc4c2)CCC3)c(F)cc1F [Compound 271, 6-(2-(2,4-difluoro-5-methylphenyl)-6,7-dihydro-5H-pyrrolo[1,2-a]imidazol-3-yl)quinoline] | 100 to 1000 nM | < 50 nM | – | – | –
2 | Cc1c(F)ccc(-c2nc3n(c2-c2ccc4ncnn4c2)CCC3)c1Cl [Compound 66, 6-(2-(2-chloro-4-fluoro-3-methylphenyl)-6,7-dihydro-5H-pyrrolo[1,2-a]imidazol-3-yl)-[1,2,4]triazolo[1,5-a]pyridine] | > 1000 nM | 100 to 1000 nM | – | – | –
3 | Cc1cc(-c2nc3n(c2-c2ccc4nccnc4c2)CCC3)ccc1F [Compound 179, 6-(2-(4-fluoro-3-methylphenyl)-6,7-dihydro-5H-pyrrolo[1,2-a]imidazol-3-yl)quinoxaline] | 100 to 1000 nM | 50 to 100 nM | – | – | –
4 | Fc1ccc(-c2nc3n(c2-c2ccc4ncsc4c2)CCC3)cc1F [Compound 207, 6-(2-(3,4-difluorophenyl)-6,7-dihydro-5H-pyrrolo[1,2-a]imidazol-3-yl)benzo[d]thiazole] | 100 to 1000 nM | 100 to 1000 nM | – | – | –
5 | Cc1ccc(F)c(-c2nc3n(c2-c2ccc4ncccc4c2)CCC3)c1 [Compound 356, 6-(2-(2-fluoro-5-methylphenyl)-6,7-dihydro-5H-pyrrolo[1,2-a]imidazol-3-yl)quinoline] | 100 to 1000 nM | 50 to 100 nM | – | – | –
6 | Fc1cccc(F)c1-c1nc2n(c1-c1ccc3nccnc3c1)CCC2 [Compound 215, 6-(2-(2,6-difluorophenyl)-6,7-dihydro-5H-pyrrolo[1,2-a]imidazol-3-yl)quinoxaline] | > 1000 nM | > 1000 nM | – | – | –
7 | Fc1ccc(-c2nc3occn3c2-c2ccc3nccnc3c2)c(F)c1F [Compound 164, 5-(quinoxalin-6-yl)-6-(2,3,4-trifluorophenyl)imidazo[2,1-b]oxazole] | 100 to 1000 nM | 100 to 1000 nM | – | – | –
8 | Cc1cc(-c2nc3n(c2-c2ccc4ncsc4c2)CCC3)c(F)cc1Cl [Compound 253, 6-(2-(4-chloro-2-fluoro-5-methylpheny)-6,7-dihydro-5H-pyrrolo[1,2-a]imidazol-3-yl)benzo[d]thiazole] | > 1000 nM | > 1000 nM | – | – | –
9 | Nc1ncnc2ccc(-c3c(-c4cc(Cl)ccc4F)nc4n3CCC4)cc12 [Compound 346, 6-(2-(5-chloro-2-fluorophenyl)-6,7-dihydro-5H-pyrrolo[1,2-a]imidazol-3-yl)quinazolin-4-amine] | < 50 nM | < 50 nM | – | – | –
10 | Cc1c(F)ccc(-c2nc3n(c2-c2ccc4ncsc4c2)CCC3)c1C [Compound 329, 6-(2-(4-fluoro-2,3-dimethylphenyl)-6,7-dihydro-5H-pyrrolo[1,2-a]imidazol-3-yl)benzo[d]thiazole] | – | – | > 1000 nM | 100 to 1000 nM | –
11 | Fc1cc(F)c(F)c(-c2nc3n(c2-c2ccc4[nH]ncc4c2)CCC3)c1 [Compound 236, 5-(2-(2,3,5-trifluorophenyl)-6,7-dihydro-5H-pyrrolo[1,2-a]imidazol-3-yl)-1H-indazole] | – | – | > 1000 nM | 100 to 1000 nM | –
12 | Cc1ccc(-c2ccc3ncnn3c2)cc1-c1nc2n(c1-c1ccc3ncnn3c1)CCC2 [Compound 91, 6-(2-(5-([1,2,4]triazolo[1,5-a]pyridin-6-yl)-2-methylphenyl)-6,7-dihydro-5H-pyrrolo[1,2-a]imidazol-3-yl)-[1,2,4]triazolo[1,5-a]pyridine] | > 1000 nM | > 1000 nM | – | – | –
13 | Cc1cc(-c2nc3n(c2-c2ccc4ncccc4c2)CCC3)c(Cl)cc1F [Compound 319, 6-(2-(2-chloro-4-fluoro-5-methylphenyl)-6,7-dihydro-5H-pyrrolo[1,2-a]imidazol-3-yl)quinoline] | – | – | > 1000 nM | – | 100 to 1000 nM
14 | c1ccc(C2=C(c3ccc4cn[nH]c4c3)C3CCCC3=N2)nc1 (stereo not drawn) [Compound 366, 6-(2-(pyridin-2-yl)-3a,4,5,6-tetrahydrocyclopenta[b]pyrrol-3-yl)-1H-indazole] | 50 to 100 nM | < 50 nM | – | – | –
15 | Fc1ccc(-c2nc3occn3c2-c2ccc3nccnc3c2)c(F)c1 [Compound 157, 6-(2,4-difluorophenyl)-5-(quinoxalin-6-yl)imidazo[2,1-b]oxazole] | 100 to 1000 nM | 100 to 1000 nM | – | – | –
16 | COc1cccc(-c2nc3n(c2-c2ccc4cn[nH]c4c2)CCC3)c1 [Compound 186, 6-(2-(3-methoxyphenyl)-6,7-dihydro-5H-pyrrolo[1,2-a]imidazol-3-yl)-1H-indazole] | – | – | 100 to 1000 nM | 50 to 100 nM | –
17 | Cc1cccc(-c2nc3occn3c2-c2ccc3cn[nH]c3c2)c1 [Compound 140, 6-(m-tolyl)-5-(1H-indazol-6-yl)imidazo[2,1-b]oxazole] | < 50 nM | < 50 nM | – | – | –
18 | Clc1ccc(Cl)c(-c2nc3n(c2-c2ccc4ncsc4c2)CCC3)c1 [Compound 349, 6-(2-(2,5-dichlorophenyl)-6,7-dihydro-5H-pyrrolo[1,2-a]imidazol-3-yl)benzo[d]thiazole] | – | – | 50 to 100 nM | < 50 nM | –
19 | Cc1cc(F)c(Cl)cc1-c1nc2n(c1-c1ccc3ncccc3c1)CCC2 [Compound 299, 6-(2-(5-chloro-4-fluoro-2-methylphenyl)-6,7-dihydro-5H-pyrrolo[1,2-a]imidazol-3-yl)quinoline] | – | – | > 1000 nM | 100 to 1000 nM | –
20 | Fc1ccc(-c2nc3n(c2-c2ccc4nccnc4c2)CCC3)cc1 [Compound 178, 6-(2-(4-fluorophenyl)-6,7-dihydro-5H-pyrrolo[1,2-a]imidazol-3-yl)quinoxaline] | – | – | > 1000 nM | 100 to 1000 nM | –
21 | O=C(O)C1CCC2(CC1)Cc1nc(-c3ccc(F)cc3)c(-c3ccc4ncnn4c3)n1C2 (stereo not drawn) [Compound 76, 3′-([1,2,4]triazolo[1,5-a]pyridin-6-yl)-2′-(4-fluorophenyl)-5′H,7′H-spiro[cyclohexane-1,6′-pyrrolo[1,2-a]imidazole]-4-carboxylic acid] | – | – | > 1000 nM | > 1000 nM | –
22 | Cc1ccc(F)cc1-c1nc2n(c1-c1ccc3ncsc3c1)CCC2 [Compound 301, 6-(2-(5-fluoro-2-methylphenyl)-6,7-dihydro-5H-pyrrolo[1,2-a]imidazol-3-yl)benzo[d]thiazole] | – | – | > 1000 nM | 100 to 1000 nM | –
23 | Clc1cccc(-c2nc3n(c2-c2ccc4ncsc4c2)CCC3)c1 [Compound 191, 6-(2-(3-chlorophenyl)-6,7-dihydro-5H-pyrrolo[1,2-a]imidazol-3-yl)benzo[d]thiazole] | – | – | 100 to 1000 nM | < 50 nM | –
24 | Fc1ccc(-c2nc3n(c2-c2ccc4cn[nH]c4c2)CCC3)c(F)c1 [Compound 202, 6-(2-(2,4-difluorophenyl)-6,7-dihydro-5H-pyrrolo[1,2-a]imidazol-3-yl)-1H-indazole] | 100 to 1000 nM | 50 to 100 nM | – | – | –
25 | Fc1ccc(-c2nc3n(c2-c2ccc4ncnn4c2)CC2(CCCC2)C3)cc1 [Compound 71, 3′-([1,2,4]triazolo[1,5-a]pyridin-6-yl)-2′-(4-fluorophenyl)-5′H,7′H-spiro[cyclopentane-1,6′-pyrrolo[1,2-a]imidazole]] | – | – | > 1000 nM | > 1000 nM | –
26 | Fc1ccc(-c2nc3occn3c2-c2ccc3ncsc3c2)cc1 [Compound 127, 5-(benzo[d]thiazol-6-yl)-6-(4-fluorophenyl)imidazo[2,1-b]oxazole] | < 50 nM | < 50 nM | – | – | –
27 | Fc1cc(-c2nc3n(c2-c2ccc4nccn4c2)CCC3)c(F)cc1Cl [Compound 19, 6-(2-(4-chloro-2,5-difluorophenyl)-6,7-dihydro-5H-pyrrolo[1,2-a]imidazol-3-yl)imidazo[1,2-a]pyridine] | > 1000 nM | > 1000 nM | – | – | –
